According to ChEMBL document CHEMBL1146637, “Structure-activity relationship in the oxazolidinone-quinolone hybrid series: influence of the central spacer on the antibacterial activity and the mode of action” (Bioorg Med Chem Lett, 2003):
≈ marks a conversion by molar mass, not a printed value.

Columns and labels:
Escherichia coli [1] = assay: In vitro antibacterial activity against Escherichia coli ATCC 25922 (Ecol) was determined; type: functional
Staphylococcus aureus [2] = assay: In vitro antibacterial activity against […] Staphylococcus aureus ATCC 29213 (Saul); type: functional
Staphylococcus aureus [3] = assay: In vitro antibacterial activity against ciprofloxacin and methicillin resistant Staphylococcus aureus (Sau2CIP) was determined; type: functional
Escherichia coli [4] = assay: In vitro antibacterial activity against Escherichia coli AS19 (Eco2), permeable mutant was determined; type: functional
Haemophilus influenzae = assay: In vitro antibacterial activity against Haemophilus influenzae 11 (Hin) was determined; type: functional
Enterococcus faecalis = assay: In vitro antibacterial activity against Enterococcus faecalis ATCC 29212 (Efs) was determined; type: functional
Enterococcus faecium = assay: In vitro antibacterial activity against vancomycin and ciprofloxacin resistant Enterococcus faecium (Efm CIP) was determined; type: functional
Staphylococcus aureus [5] = assay: In vitro antibacterial activity against oxazolidinone Linezolid resistant Staphylococcus aureus (Sau3LZD) was determined; type: functional
DNA gyrase = DNA gyrase (Escherichia coli, UniProt P0AES4+P0AES6); assay: Inhibitory activity against DNA gyrase enzyme was determined by supercoiling assay with Escherichia coli DNA gyrase; type: protein-complex assay
[6] = Inhibitory activity against Escherichia coli Topoisomerase IV in relaxation assay; type: functional
Escherichia coli [7] = assay: In vitro inhibitory activity against protein synthesis was determined by transcription/translation assay with Escherichia coli S30 Extract System.; type: functional

SMILES | MIC (Escherichia coli [1]) | MIC (Staphylococcus aureus [2]) | MIC (Staphylococcus aureus [3]) | MIC (Escherichia coli [4]) | MIC (Haemophilus influenzae) | MIC (Enterococcus faecalis) | MIC (Enterococcus faecium) | MIC (Staphylococcus aureus [5]) | IC50 (DNA gyrase) | IC50 [6] | IC50 (Escherichia coli [7])
CC(=O)NC[C@H]1CN(c2ccc(OCCC3CCN(c4nc5c(cc4F)c(=O)c(C(=O)O)cn5C4CC4)C3)c(F)c2)C(=O)O1 (stereo not given in full) | 2 µg/mL (≈ 3.27 µM) | 0.125 µg/mL (≈ 0.204 µM) | 0.125 µg/mL (≈ 0.204 µM) | ≤ 0.06 µg/mL | 0.5 µg/mL (≈ 0.818 µM) | 0.06 µg/mL (≈ 0.0981 µM) | 0.125 µg/mL (≈ 0.204 µM) | 0.125 µg/mL (≈ 0.204 µM) |  |  | 
CC(=O)NC[C@H]1CN(c2ccc(OC[C@@H]3CCN(c4nc5c(cc4F)c(=O)c(C(=O)O)cn5C4CC4)C3)c(F)c2)C(=O)O1 | 1 µg/mL (≈ 1.67 µM) | ≤ 0.06 µg/mL | 0.25 µg/mL (≈ 0.418 µM) | ≤ 0.06 µg/mL | 0.125 µg/mL (≈ 0.209 µM) | 0.125 µg/mL (≈ 0.209 µM) | 0.5 µg/mL (≈ 0.837 µM) | ≤ 0.06 µg/mL |  |  | 
CC(=O)NC[C@H]1CN(c2ccc(OC3CCN(c4nc5c(cc4F)c(=O)c(C(=O)O)cn5C4CC4)CC3)c(F)c2)C(=O)O1 | 32 µg/mL (≈ 53.5 µM) | 0.25 µg/mL (≈ 0.418 µM) | 0.25 µg/mL (≈ 0.418 µM) | 0.25 µg/mL (≈ 0.418 µM) | 1 µg/mL (≈ 1.67 µM) | 0.125 µg/mL (≈ 0.209 µM) | 0.25 µg/mL (≈ 0.418 µM) | 1 µg/mL (≈ 1.67 µM) | 50 µM | 5 µM | 5.2 µM
CC(=O)NC[C@H]1CN(c2ccc(OC3CCCN(c4nc5c(cc4F)c(=O)c(C(=O)O)cn5C4CC4)CC3)c(F)c2)C(=O)O1 (stereo not given in full) | 8 µg/mL (≈ 13.1 µM) | 0.5 µg/mL (≈ 0.818 µM) | 0.25 µg/mL (≈ 0.409 µM) | ≤ 0.06 µg/mL | 1 µg/mL (≈ 1.64 µM) | 0.25 µg/mL (≈ 0.409 µM) | 0.5 µg/mL (≈ 0.818 µM) | 0.5 µg/mL (≈ 0.818 µM) |  |  | 
CC(=O)NC[C@H]1CN(c2ccc(OCC3CCN(c4nc5c(cc4F)c(=O)c(C(=O)O)cn5C4CC4)C3)c(F)c2)C(=O)O1 (stereo not given in full) | 1 µg/mL (≈ 1.67 µM) | 0.125 µg/mL (≈ 0.209 µM) | 0.125 µg/mL (≈ 0.209 µM) | ≤ 0.06 µg/mL | 0.125 µg/mL (≈ 0.209 µM) | 0.125 µg/mL (≈ 0.209 µM) | 0.25 µg/mL (≈ 0.418 µM) | ≤ 0.06 µg/mL | 2 µM |  | 1.5 µM
CC(=O)NC[C@H]1CN(c2ccc(OC3CCCN(c4nc5c(cc4F)c(=O)c(C(=O)O)cn5C4CC4)C3)c(F)c2)C(=O)O1 (stereo not given in full) | > 32 µg/mL | 32 µg/mL (≈ 53.5 µM) | 16 µg/mL (≈ 26.8 µM) | 8 µg/mL (≈ 13.4 µM) | 2 µg/mL (≈ 3.35 µM) | 16 µg/mL (≈ 26.8 µM) | > 32 µg/mL | 16 µg/mL (≈ 26.8 µM) |  |  | 
CC(=O)NC[C@H]1CN(c2ccc(O[C@@H]3CCN(c4nc5c(cc4F)c(=O)c(C(=O)O)cn5C4CC4)C3)c(F)c2)C(=O)O1 | 8 µg/mL (≈ 13.7 µM) | 1 µg/mL (≈ 1.71 µM) | 0.5 µg/mL (≈ 0.857 µM) | ≤ 0.06 µg/mL | 0.5 µg/mL (≈ 0.857 µM) | 0.5 µg/mL (≈ 0.857 µM) | 2 µg/mL (≈ 3.43 µM) | 0.5 µg/mL (≈ 0.857 µM) |  |  | 
CC(=O)NC[C@H]1CN(c2ccc(N[C@@H]3CCN(c4nc5c(cc4F)c(=O)c(C(=O)O)cn5C4CC4)C3)c(F)c2)C(=O)O1 | 0.5 µg/mL (≈ 0.858 µM) | ≤ 0.06 µg/mL | 1 µg/mL (≈ 1.72 µM) | ≤ 0.06 µg/mL | ≤ 0.06 µg/mL | ≤ 0.06 µg/mL | 8 µg/mL (≈ 13.7 µM) | ≤ 0.06 µg/mL |  |  | 
CC(=O)NC[C@H]1CN(c2ccc(OCC3CCN(c4nc5c(cc4F)c(=O)c(C(=O)O)cn5C4CC4)CC3)c(F)c2)C(=O)O1 | > 32 µg/mL | 0.125 µg/mL (≈ 0.204 µM) | 0.125 µg/mL (≈ 0.204 µM) | 0.125 µg/mL (≈ 0.204 µM) | 0.5 µg/mL (≈ 0.818 µM) | ≤ 0.06 µg/mL | 0.125 µg/mL (≈ 0.204 µM) | 1 µg/mL (≈ 1.64 µM) |  |  | 
CC(=O)NC[C@H]1CN(c2ccc(OC[C@H]3CCN(c4nc5c(cc4F)c(=O)c(C(=O)O)cn5C4CC4)C3)c(F)c2)C(=O)O1 | 1 µg/mL (≈ 1.67 µM) | 0.125 µg/mL (≈ 0.209 µM) | 0.125 µg/mL (≈ 0.209 µM) | ≤ 0.06 µg/mL | 0.25 µg/mL (≈ 0.418 µM) | 0.06 µg/mL (≈ 0.1 µM) | 0.125 µg/mL (≈ 0.209 µM) | 0.125 µg/mL (≈ 0.209 µM) |  |  | 
CC(=O)NC[C@H]1CN(c2ccc(OC3CN(c4nc5c(cc4F)c(=O)c(C(=O)O)cn5C4CC4)C3)c(F)c2)C(=O)O1 | 1 µg/mL (≈ 1.76 µM) | 0.25 µg/mL (≈ 0.439 µM) | 0.5 µg/mL (≈ 0.878 µM) | ≤ 0.06 µg/mL | 0.125 µg/mL (≈ 0.219 µM) | 0.5 µg/mL (≈ 0.878 µM) | 2 µg/mL (≈ 3.51 µM) | ≤ 0.06 µg/mL |  |  | 
CC(=O)NC[C@H]1CN(c2ccc(OCCC3CCN(c4nc5c(cc4F)c(=O)c(C(=O)O)cn5C4CC4)CC3)c(F)c2)C(=O)O1 | > 32 µg/mL | 0.125 µg/mL (≈ 0.2 µM) | 0.125 µg/mL (≈ 0.2 µM) | ≤ 0.06 µg/mL | 2 µg/mL (≈ 3.2 µM) | 0.125 µg/mL (≈ 0.2 µM) | 0.125 µg/mL (≈ 0.2 µM) | 1 µg/mL (≈ 1.6 µM) |  |  | 
CC(=O)NC[C@H]1CN(c2ccc(N3CCN(c4nc5c(cc4F)c(=O)c(C(=O)O)cn5C4CC4)CC3)c(F)c2)C(=O)O1 | 32 µg/mL (≈ 54.9 µM) | 0.25 µg/mL (≈ 0.429 µM) | 0.25 µg/mL (≈ 0.429 µM) | 0.06 µg/mL (≈ 0.103 µM) | 1 µg/mL (≈ 1.72 µM) | 0.125 µg/mL (≈ 0.215 µM) | 0.25 µg/mL (≈ 0.429 µM) | 8 µg/mL (≈ 13.7 µM) | 50 µM | 10 µM | 2.8 µM
CC(=O)NC[C@H]1CN(c2ccc(O[C@H]3CCN(c4nc5c(cc4F)c(=O)c(C(=O)O)cn5C4CC4)C3)c(F)c2)C(=O)O1 | 1 µg/mL (≈ 1.71 µM) | ≤ 0.06 µg/mL | 0.25 µg/mL (≈ 0.428 µM) | ≤ 0.06 µg/mL | ≤ 0.06 µg/mL | 0.125 µg/mL (≈ 0.214 µM) | 1 µg/mL (≈ 1.71 µM) | ≤ 0.06 µg/mL | 10 µM | 3 µM | 6.7 µM
O=C(O)c1cn(C2CC2)c2cc(N3CCNCC3)c(F)cc2c1=O [CIPROFLOXACIN] | ≤ 0.03 µg/mL | 0.5 µg/mL (≈ 1.51 µM) | > 32 µg/mL | ≤ 0.03 µg/mL | ≤ 0.03 µg/mL | 1 µg/mL (≈ 3.02 µM) | > 32 µg/mL | 0.5 µg/mL (≈ 1.51 µM) |  | 2.5 µM | > 20 µM
CC(=O)NC[C@H]1CN(c2ccc(N3CCOCC3)c(F)c2)C(=O)O1 [LINEZOLID] | > 64 µg/mL |  | 1 µg/mL (≈ 2.96 µM) | 8 µg/mL (≈ 23.7 µM) | 8 µg/mL (≈ 23.7 µM) |  | 2 µg/mL (≈ 5.93 µM) | 64 µg/mL (≈ 190 µM) |  |  | 4.1 µM
